Experiments:
Test in all cases: relative viability (nuclei count vs DMSO), 5 days (fraction); higher = more cells survive
[1] = compound: COc1cc2/c(=N/c3ccc(Br)cc3F)nc[nH]c2cc1OCC1CCN(C)CC1 [Vandetanib] + Nc1nc2[nH]cc(CCc3ccc(C(=O)N[C@@H](CCC(=O)O)C(=O)O)cc3)c2c(=O)[nH]1 [Pemetrexed] (partner 0.2 µM)
Summary of the method: (§1)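 A single step with final 0.05% Triton X-100, 1% formaldehyde and 1 ug/ml Hoechst fixed the cells and stained nuclei 5 days after treatment. Lung cancer cell lines in 1536-well plates had been treated by pin tool the day after seeding with one drug alone or a fixed anchor-drug dose plus five library-drug doses (not always all listed) in √10 steps, and nuclei were counted on 4× images. Relative viability is the ratio of nuclei in treated wells to nuclei in vehicle wells, taken as the median of duplicate plates.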

[2] = compound: COc1cc2/c(=N/c3ccc(Br)cc3F)nc[nH]c2cc1OCC1CCN(C)CC1 [Vandetanib] + Cc1nc(Nc2ncc(C(=O)Nc3c(C)cccc3Cl)s2)cc(N2CCN(CCO)CC2)n1 [Dasatinib] (partner 0.075 µM)
Summary of the method: as §1

[3] = compound: COc1cc2/c(=N/c3ccc(Br)cc3F)nc[nH]c2cc1OCC1CCN(C)CC1 [Vandetanib] + C[C@]1(O)C[C@@H](c2nc(-c3ccc4ccc(-c5ccccc5)nc4c3)c3c(N)nccn32)C1 [Linsitinib] (partner 1 µM)
Summary of the method: as §1

[4] = compound: C#Cc1cccc(Nc2ncnc3cc(OC)c(OCCCCCCC(=O)NO)cc23)c1 [CUDC-101] + Cc1nc(Nc2ncc(C(=O)Nc3c(C)cccc3Cl)s2)cc(N2CCN(CCO)CC2)n1 [Dasatinib] (partner 0.075 µM)
Summary of the method: as §1

Cell Line	relative viability ([1]; first compound 0.02 µM)	relative viability ([1]; first compound 0.06325 µM)	relative viability ([1]; first compound 0.2 µM)	relative viability ([1]; first compound 0.6325 µM)	relative viability ([1]; first compound 2 µM)	relative viability ([2]; first compound 0.02 µM)	relative viability ([2]; first compound 0.06325 µM)	relative viability ([2]; first compound 0.2 µM)	relative viability ([2]; first compound 0.6325 µM)	relative viability ([2]; first compound 2 µM)	relative viability ([3]; first compound 0.02 µM)	relative viability ([3]; first compound 0.06325 µM)	relative viability ([3]; first compound 0.2 µM)	relative viability ([3]; first compound 0.6325 µM)	relative viability ([3]; first compound 2 µM)	relative viability ([4]; first compound 0.01 µM)	relative viability ([4]; first compound 0.03162 µM)	relative viability ([4]; first compound 0.1 µM)	relative viability ([4]; first compound 0.3162 µM)	relative viability ([4]; first compound 1 µM)
EKVX	0.385	0.373	0.459	0.349	0.363	0.547	0.566	0.498	0.602	0.374	1.04	0.948	0.962	0.793	0.493	0.374	0.499	0.571	0.439	0.362
NCI-H1650	0.374	0.315	0.404	0.371	0.392	0.322	0.275	0.322	0.292	0.305	–	–	–	–	–	0.302	0.292	0.321	0.324	0.221
NCI-H1703	–	–	–	–	–	–	–	–	–	–	0.543	0.73	1.14	0.637	0.535	–	–	–	–	–
NCI-H727	–	–	–	–	–	0.403	0.408	0.317	0.318	0.329	0.216	0.336	0.347	0.283	0.271	0.298	0.422	0.359	0.375	0.311
NCI-H838	0.242	0.243	0.251	0.232	0.237	0.278	0.286	0.341	0.29	0.27	1.02	1.07	1.02	1.01	1.01	0.338	–	0.308	0.335	0.358
NCI-H1944	0.615	0.566	0.682	0.564	0.58	0.208	0.218	0.205	0.195	0.215	1.08	1.16	1.18	0.981	0.94	0.215	0.184	0.201	0.196	0.196
SK-LU-1	0.971	0.787	1.01	1.07	1.04	0.195	0.151	0.184	0.18	0.173	1.05	0.759	0.896	1.12	1.12	0.189	0.219	0.177	0.207	0.196
LC-2-ad	0.257	0.278	0.273	0.259	0.264	0.574	0.471	0.49	0.317	0.211	0.818	0.787	0.841	0.746	0.417	0.737	0.879	0.638	0.69	0.298
LOU-NH91	0.413	0.381	0.391	0.442	0.431	0.53	0.433	0.506	0.442	0.317	0.954	0.733	0.679	0.685	0.629	0.596	0.509	0.469	0.486	0.38
NCI-H2009	1.02	1.14	0.99	0.986	1.05	0.326	0.241	0.329	0.309	0.349	1.17	1.16	1.3	1.22	1.19	0.321	0.281	0.396	0.443	0.338
NCI-H647	0.185	0.152	0.182	0.153	0.175	0.151	0.207	0.175	0.178	0.198	1.1	1.13	1.08	1.2	1.14	0.255	0.198	0.23	0.224	0.136
NCI-H2170	0.278	0.249	0.265	0.262	0.268	0.55	0.555	0.487	0.462	0.609	–	–	–	–	–	0.633	0.512	0.583	0.475	0.363
EBC-1	–	–	–	–	–	–	–	–	–	–	0.742	0.893	0.958	0.885	0.925	–	–	–	–	–
NCI-H2342	0.728	0.832	0.77	0.801	0.668	0.339	0.335	0.321	0.315	0.361	–	–	–	–	–	0.316	0.301	0.325	0.298	0.241
SW 900	0.472	0.464	–	0.483	0.464	0.445	0.57	0.537	0.641	0.409	–	–	–	–	–	0.455	0.68	0.791	0.602	0.618
HCC-44	0.606	0.699	0.684	0.657	0.635	–	–	–	–	–	0.642	0.64	0.753	0.724	0.688	–	–	–	–	–
IA-LM	–	–	–	–	–	–	–	–	–	–	0.616	0.567	0.616	0.593	0.673	–	–	–	–	–
NCI-H522	0.941	1.02	0.957	1.25	0.999	0.849	0.724	0.885	0.808	0.821	–	–	–	–	–	0.931	0.758	0.928	0.842	0.596
NCI-H1299	–	–	–	–	–	–	–	–	–	–	0.912	0.916	0.997	0.957	1	–	–	–	–	–
ABC-1	–	–	–	–	–	0.423	0.547	0.605	0.614	0.367	1.03	0.805	1.02	0.849	0.598	0.772	0.728	0.543	0.532	0.194
NCI-H1623	–	–	–	–	–	0.489	0.576	0.502	0.507	0.404	–	–	–	–	–	0.561	0.501	0.429	0.676	0.486
NCI-H1648	0.568	0.691	0.652	0.995	0.714	–	–	–	–	–	–	–	–	–	–	–	–	–	–	–
A549	–	–	–	–	–	–	–	–	–	–	0.718	0.498	0.711	0.587	0.495	–	–	–	–	–
Calu-6	–	–	–	–	–	–	–	–	–	–	0.939	0.861	0.911	0.975	0.876	–	–	–	–	–
